Data taken from publication PMC8217170, “Phase Ib dose-escalation study of the hypoxia-modifier Myo-inositol trispyrophosphate in patients with hepatopancreatobiliary tumors” (Nature Communications, 2021).
Several values for one entry are separate records, joined by “and”; a condition that tells them apart may be missing. Equal entries are not always repeated. Where two headings read alike, the source gives them in different places.

Legend:
[1] = tested on: pancreatic carcinoma; parameters: method as in ref 15 (supplementary references); settings: ref 15 (supplementary references), cited from earlier work
[2] = tested on: target lesions of PDAC, CRLM, CCA and HCC; assay: Morphological radiological response, MRI, RECIST 1.1; format: in vivo, human; parameters: key to RECIST1.1 response after ITPP / RECIST1.1 response after chemotherapy / RespITPP_Recist / RespChemo_Recist: CR = complete response; PR = partial response; SD = stable disease; PD = progressive disease; Lesion1_pre_DM / Lesion1_post_DM / Lesion1_chemo_DM / Lesion2_pre_DM / Lesion2_post_DM / Lesion2_chemo_DM / Lesion3_pre_DM / Lesion3_post_DM / Lesion3_chemo_DM / Lesion4_pre_DM / Lesion4_post_DM / Lesion4_chemo_DM / Lesion5_pre_DM / Lesion5_post_DM / Lesion5_chemo_DM: unit not given here; settings: for RECIST1.1 response after chemotherapy: chemotherapy subsequent to ITPP; for RespITPP_Recist / RespChemo_Recist: RECIST
Method: Radiological assessment, consisting of abdominal MRI and FDG-PET-CT, was performed before ITPP administration and after the 3-week treatment course. Where possible, radiological re-evaluation was performed after 3–6 cycles of chemotherapy. Radiological responses were evaluated according to the RECIST 1.1 criteria[56] for MRI and EORTC criteria[57] for FDG-PET-CT imaging.
Then first calculate the sum of diameters (DM) and SUV-activities of radiological target lesions before ITPP (sum_pre), after ITPP (sum_post) and after subsequent chemotherapy (sum_chemo) for assessment of morphological RECIST1.1 (diameter) and metabolical EORTC (SUV activiy) responses.
Patient 1 (dropout after only 2 infusions and subsequent death due to rapid oncological progression) is excluded for radiological assessment due to no follow up imaging available.
In a second step, we calculate percent changes (PC) of diameter and SUV activity between before ITPP, after ITPP and after chemotherapy.

[3] = tested on: patients with PDAC, CRLM, CCA and HCC; assay: Progression free and overall survival; format: in vivo, human; settings: for Follow up from study start / Survival status: individual patients; for Survival status: per 31st of December 2018
Excerpt: Ad hoc outcomes consisted of assessment of overall survival of patients in regard to tumor type and cohort as well as histological assessment of hypoxia markers in tumor tissue of selected patients.
Cohort size was based on the traditional 3 + 3 dose-escalation scheme without formal power or sample size calculation. Data are summarized with descriptive statistics using medians and interquartile ranges (IQRs) as indicated. Pearson’s coefficient was used to test for correlation between numerical variables, and Mann–Whitney U or Kruskal–Wallis tests for differences in continuous variables among groups. Kaplan–Meier curves and the Mantel–Cox log rank test were used for survival analyses. No adjustment for multiple testing was performed.

[4] = parameters: method as in Swissmedic special application Nr. SBH12-1310; settings: one cancer patient, monotherapy 5600 mg/m2 once a week for 5 weeks; ref Swissmedic special application Nr. SBH12-1310; cited from earlier work
[5] = tested on: EGF; assay: Serum angiogenesis marker, multiplex bead-based immunoassay (LEGENDplex); format: in vivo, human; parameters: EGF: unit not given here; settings: for EGF: serum, duplicate wells
[6] = parameters: method as in unpublished data obtained from NormOxys; settings: rats, once a week for 5 weeks; ref unpublished data obtained from NormOxys; cited from earlier work
[7] = tested on: hepatocellular carcinoma; parameters: method as in ref 10 (supplementary references); settings: syngeneic, orthotopic rat model of hepatocellular carcinoma; ref 10 (supplementary references); cited from earlier work
[8] = tested on: VEGFA; assay: Serum angiogenesis marker, multiplex bead-based immunoassay (LEGENDplex); format: in vivo, human; parameters: VEGF: unit not given here; settings: for VEGF: serum, duplicate wells
[9] = after ITPP monotherapy, 27 patients assessed
[10] = after chemotherapy subsequent to ITPP, 20 patients
[11] = following ITPP treatment, 27 patients
[12] = Patient 25, Cohort 8, PDAC, Day 3 post
[13] = Patient 25, Cohort 8, PDAC, Day 9 post
[14] = Patient 26, Cohort 8, PDAC, Day 3 post
[15] = Patient 26, Cohort 8, PDAC, Day 9 post
[16] = Patient 27, Cohort 8, CCC, Day 3 post
[17] = Patient 27, Cohort 8, CCC, Day 9 post
[18] = Patient 28, Cohort 8, CRLM, Day 3 post
[19] = Patient 28, Cohort 8, CRLM, Day 9 post

O=P1(O)OC2C3OP(=O)(O)OP(=O)(O)OC3C3OP(=O)(O)OP(=O)(O)OC3C2OP(=O)(O)O1 (stereo not shown) [ITPP, Myo-inositol trispyrophosphate]
Survival ([1]; ITPP combined with half the usual dose of gemcitabine, all animals): > 200 days
Survival ([1]; ITPP treatment alone): 93 days
Median change in target lesion size, RECIST ([2]; CCA, after ITPP): 0.88%
Median change in target lesion size, RECIST ([2]; CCA, after chemotherapy): −18.18%
Median change in target lesion size, RECIST ([2]; CRLM, after ITPP): 6.67%
Median change in target lesion size, RECIST ([2]; CRLM, after chemotherapy): −3.12%
Median change in target lesion size, RECIST ([2]; HCC, after ITPP): 0.81%
Median change in target lesion size, RECIST ([2]; HCC, after chemotherapy): −30.46%
Share of patients with SD (morphological disease stabilization) ([2]; ITPP monotherapy): 52%
Median change in target lesion size, RECIST ([2]; PDAC, after ITPP): 12.16%
Median change in target lesion size, RECIST ([2]; PDAC, after chemotherapy): 0%
Patients with progression (PD), RECIST1.1 [2, 9]: 11
Patients with stable disease (SD), RECIST1.1 [2, 9]: 14
Patients with PD, RECIST [2, 10]: 6
Patients with SD, RECIST [2, 10]: 12
Patients with partial response (PR), RECIST [2, 10]: 2
Share of patients with PR ([2]; after subsequent chemotherapy): 10%
Share of patients with SD ([2]; after subsequent chemotherapy): 60%
RECIST1.1 response after ITPP ([2]; individual patients, cohort 1 (1866 mg/m2)): PD and SD
RECIST1.1 response after chemotherapy ([2]; individual patients, cohort 1, 1866 mg/m2): SD
RECIST1.1 response after ITPP ([2]; individual patients, cohort 2 (3732 mg/m2)): SD and PD
RECIST1.1 response after chemotherapy ([2]; individual patients, cohort 2, 3732 mg/m2): SD
RECIST1.1 response after ITPP ([2]; individual patients, cohort 3 (5600 mg/m2)): PD and SD
RECIST1.1 response after chemotherapy ([2]; individual patients, cohort 3, 5600 mg/m2): PD and SD
RECIST1.1 response after ITPP ([2]; individual patients, cohort 4 (7000 mg/m2)): PD and SD
RECIST1.1 response after chemotherapy ([2]; individual patients, cohort 4, 7000 mg/m2): PR
RECIST1.1 response after ITPP ([2]; individual patients, cohort 5 (8750 mg/m2)): SD and PD
RECIST1.1 response after chemotherapy ([2]; individual patients, cohort 5, 8750 mg/m2): PD
RECIST1.1 response after ITPP ([2]; individual patients, cohort 6 (10500 mg/m2)): PD and SD
RECIST1.1 response after chemotherapy ([2]; individual patients, cohort 6, 10500 mg/m2): PD and PR and SD
RECIST1.1 response after ITPP ([2]; individual patients, cohort 7 (12390 mg/m2)): PD and SD
RECIST1.1 response after chemotherapy ([2]; individual patients, cohort 7, 12390 mg/m2): SD
RECIST1.1 response after ITPP ([2]; individual patients, cohort 8 (14500 mg/m2)): PD and SD
RECIST1.1 response after chemotherapy ([2]; individual patients, cohort 8, 14500 mg/m2): PD and SD
Lesion1_chemo_DM ([2]; individual patients, lesion 1, after subsequent chemotherapy): 131 and 16 and 90 and 54 and 20 and 33 and 23 and 19 and 28 and 67 and 69 and 42 and 31.4 and 10 and 36
Lesion1_post_DM ([2]; individual patients, lesion 1, post ITPP): 113 and 27 and 110 and 305 and 107 and 74 and 26 and 50 and 49 and 25 and 20 and 30 and 70 and 58 and 81 and 43 and 44.6 and 33 and 17 and 12 and 42 and 164
Lesion1_pre_DM ([2]; individual patients, lesion 1, pre ITPP (baseline)): 114 and 27 and 111 and 293 and 106 and 73 and 22 and 26 and 48 and 43 and 49 and 17 and 20 and 21 and 24 and 71 and 50 and 82 and 59 and 43.7 and 32 and 13 and 10 and 38 and 163
Lesion2_chemo_DM ([2]; individual patients, lesion 2, after subsequent chemotherapy): 13 and 23 and 41 and 24 and 25 and 32 and 16 and 12 and 62 and 14 and 47 and 28.9 and 10 and 30 and 40
Lesion2_post_DM ([2]; individual patients, lesion 2, post ITPP): 18 and 26 and 56 and 15 and 17 and 58 and 21 and 25 and 12 and 28 and 14 and 49 and 42 and 39.6 and 16 and 31 and 50 and 13
Lesion2_pre_DM ([2]; individual patients, lesion 2, pre ITPP (baseline)): 17 and 57 and 83 and 13 and 15 and 53 and 26 and 10 and 104 and 24 and 14 and 41 and 25 and 29.7 and 16 and 46
Lesion3_chemo_DM ([2]; individual patients, lesion 3, after subsequent chemotherapy): 39 and 16 and 10 and 9 and 24 and 7 and 32.6 and 8 and 28
Lesion3_post_DM ([2]; individual patients, lesion 3, post ITPP): 32 and 23 and 21 and 10 and 26 and 16 and 45.1 and 30 and 14
Lesion3_pre_DM ([2]; individual patients, lesion 3, pre ITPP (baseline)): 30 and 18 and 20 and 10 and 13 and 66 and 26.6 and 31 and 12
Lesion4_chemo_DM ([2]; individual patients, lesion 4, after subsequent chemotherapy): 21 and 7 and 10 and 12 and 34
Lesion4_post_DM ([2]; individual patients, lesion 4, post ITPP): 17 and 23 and 10 and 15 and 44
Lesion4_pre_DM ([2]; individual patients, lesion 4, pre ITPP (baseline)): 21 and 20 and 10 and 22 and 14 and 38
Lesion5_chemo_DM ([2]; individual patients, lesion 5, after subsequent chemotherapy): 10 and 18 and 9 and 11
Lesion5_post_DM ([2]; individual patients, lesion 5, post ITPP): 16 and 18 and 12
Lesion5_pre_DM ([2]; individual patients, lesion 5, pre ITPP (baseline)): 21 and 15 and 13 and 11 and 14
RespITPP_Recist ([2]; individual patients, morphological response after ITPP monotherapy): PD and SD
RespChemo_Recist ([2]; individual patients, morphological response after subsequent chemotherapy following ITPP): PD and SD and PR
NewLesion_ITPP ([2]; individual patients, new lesion after ITPP monotherapy (Yes/No)): Yes and No
NewLesion_Chemo ([2]; individual patients, new lesion after subsequent chemotherapy following ITPP (Yes/No)): Yes and No
RespITPP_Recist ([2]; response after ITPP, per individual patient, cohort c1, tumor c2): PD and SD
RespChemo_Recist ([2]; response after chemotherapy following ITPP, per individual patient, cohort c1, tumor c2): PD and SD and PR
Median OS from start of ITPP infusions ([3]; CCA): 302 days
Median progression free survival (PFS) ([3]; CCA): 158 days
Median OS from start of ITPP infusions ([3]; CRLM): 340 days
Median progression free survival (PFS) ([3]; CRLM): 23 days
Median OS from start of ITPP infusions ([3]; HCC): 684 days
Median progression free survival (PFS) ([3]; HCC): 345 days
Median OS from start of ITPP infusions ([3]; PDAC): 165 days
Median progression free survival (PFS) ([3]; PDAC): 32 days
Follow up from study start ([3]; cohort 1 (1866 mg/m2)): 16 days and 464 days and 159 days and 398 days
Survival status ([3]; cohort 1, 1866 mg/m2): Dead
Follow up from study start ([3]; cohort 2 (3732 mg/m2)): 783 days and 188 days and 158 days
Survival status ([3]; cohort 2, 3732 mg/m2): Dead
Follow up from study start ([3]; cohort 3 (5600 mg/m2)): 159 days and 171 days and 206 days
Survival status ([3]; cohort 3, 5600 mg/m2): Dead
Follow up from study start ([3]; cohort 4 (7000 mg/m2)): 193 days and 219 days and 684 days and 10 days
Survival status ([3]; cohort 4, 7000 mg/m2): Dead
Follow up from study start ([3]; cohort 5 (8750 mg/m2)): 196 days and 202 days and 68 days
Survival status ([3]; cohort 5, 8750 mg/m2): Dead
Follow up from study start ([3]; cohort 6 (10500 mg/m2)): 394 days and 510 days and 500 days and 301 days
Survival status ([3]; cohort 6, 10500 mg/m2): Dead and Alive
Follow up from study start ([3]; cohort 7 (12390 mg/m2)): 87 days and 380 days and 392 days
Survival status ([3]; cohort 7, 12390 mg/m2): Dead and Alive
Follow up from study start ([3]; cohort 8 (14500 mg/m2)): 43 days and 73 days and 266 days and 206 days
Survival status ([3]; cohort 8, 14500 mg/m2): Dead and Alive
Overall survival ([3]; patients with a lowering of PECAM1/CD31 under ITPP, p = 0.36): 380 days
Overall survival ([3]; patients with a lowering of VEGFA under ITPP, p = 0.053): 398 days
Overall survival ([3]; patients without lowering of PECAM1/CD31 under ITPP): 171 days
Overall survival ([3]; patients without lowering of VEGFA under ITPP): 196 days
Median OS from start of ITPP infusions ([3]; whole patient population): 206 days
Median progression free survival (PFS) ([3]; whole patient population): 48 days
Effect of the drug on the disease [4]: No effect
Share of patients with reduced EGF [5, 11]: 85.2%
EGF [5, 12]: 16.25
EGF [5, 13]: 11.62 and 15.2
EGF [5, 14]: 14.41 and 12.95
EGF [5, 15]: 9.76 and 9.88
EGF [5, 16]: 5.57 and 4.9
EGF [5, 17]: 9.82 and 10.17
EGF [5, 18]: 2.39 and 3.39
EGF [5, 19]: 3.09 and 2.24
Human equivalent dose-corrected NOAEL [6]: 15,000 mg/m2
Rats alive after 100 days [7]: nine out of ten
Share of patients with reduced VEGFA [8, 11]: 44.4%
VEGF [8, 12]: 30.91
VEGF [8, 13]: 33.24 and 35.03
VEGF [8, 14]: 5.98 and 4.62
VEGF [8, 15]: 11.09 and 13.08
VEGF [8, 16]: 10.87 and 8.9
VEGF [8, 17]: 8.12 and 8.9
VEGF [8, 18]: 2.84
VEGF [8, 19]: 2.84
